This note sets out measurements from US20240124434A1, “ATF6 INHIBITORS AND USES THEREOF” (Altos Labs, Inc., priority 2018, published 2024).

One may read the IC50 as the midpoint of a concentration-inhibition curve.

Structures can show the parent of a compound that is named as a salt. Where two headings read alike, the source gives them in different places.

This assay has as its system ATF6. Description: ERSE ATF6-luciferase reporter assay (thapsigargin-induced ER stress). Format: cell-based, human. The conditions noted are these: thapsigargin-induced ER stress, U2-OS ATF6 luc reporter cells. In general terms: Reporter assays use an easily measured gene product as a stand-in for the process of interest.
[1] abbreviates: Homo sapiens, U2OS, 8 h, 1 μM test compound, 8 hr, read-out: Inh. ATF6-Luc @ 1 μM [%].
Setting [2] is: Homo sapiens, U2OS, dose-response 30 μM to 1 nM, read-out: IC50 ATF6-Luc reporter.
Setting [3] is: Homo sapiens, U2OS, 1 μM test compound, 8 hr, read-out: Inh. ATF6-Luc @ 1 μM [%].

Consider `O=C(Nc1cnn(Cc2ccc(C(F)(F)F)cc2C(F)(F)F)c1)c1cc(-c2ncccc2Cl)on1` [Compound 31, N-(1-(2,4-bis(trifluoromethyl)benzyl)-1H-pyrazol-4-yl)-5-(3-chloropyridin-2-yl)isoxazole-3-carboxamide], for which the inhibition at 1 µM under setting [1] is less than 25%. The IC50 under setting [2] was greater than 10 µM.
Taken in the same sequence, the figures for `Cc1nn(-c2ccc(C(F)(F)F)cc2C(F)(F)F)cc1NC(=O)c1cc(-c2ccccn2)on1` [Compound 90, N-(1-(2,4-bis(trifluoromethyl)phenyl)-3-methyl-1H-pyrazol-4-yl)-5-(pyridin-2-yl)isoxazole-3-carboxamide] were less than 25% and greater than 10 µM.
Taken in the same sequence, the figures for `C[C@H](c1ccc(C(F)(F)F)cc1C(F)(F)F)n1cc(NC(=O)c2coc(-c3ccccn3)n2)cn1` [Compound 125, (R)—N-(1-(1-(2,4-bis(trifluoromethyl)phenyl)ethyl)-1H-pyrazol-4-yl)-2-(pyridin-2-yl)oxazole-4-carboxamide] were less than 25% and greater than 10 µM.
Taken in the same sequence, the figures for `O=C(Nc1cnn(Cc2ccc(C(F)(F)F)cc2C(F)(F)F)c1)c1cncc(-c2cccnc2)c1` [Compound 15, N-(1-(2,4-bis(trifluoromethyl)benzyl)-1H-pyrazol-4-yl)-[3,3′-bipyridine]-5-carboxamide] were less than 25% and greater than 10 µM.
Consider `Cc1nc(-c2ccccn2)sc1C(=O)Nc1cnn([C@H](C)c2ccc(C(F)(F)F)cc2C(F)(F)F)c1` [Compound 106, (R)—N-(1-(1-(2,4-bis(trifluoromethyl)phenyl)ethyl)-1H-pyrazol-4-yl)-4-methyl-2-(pyridin-2-yl)thiazole-5-carboxamide], for which the inhibition at 1 µM under setting [1] is less than 25%. Further, the IC50 under setting [2] is greater than 10 µM.
For `C[C@@H](c1ccc(C(F)(F)F)cc1C(F)(F)F)n1cc(NC(=O)c2nnc(-c3ccco3)s2)cn1` [Compound 161, (S)—N-(1-(1-(2,4-bis(trifluoromethyl)phenyl)ethyl)-1H-pyrazol-4-yl)-5-(furan-2-yl)-1,3,4-thiadiazole-2-carboxamide], in that order: 25 to 50% and less than 1 µM.
For `COc1ccccc1-c1cc(C(=O)Nc2cnn([C@H](C)c3ccc(C(F)(F)F)cc3C(F)(F)F)c2)no1` [Compound 88, (R)N-(1-(1-(2,4-bis(trifluoromethyl)phenyl)ethyl)-1H-pyrazol-4-yl)-5-(2-methoxyphenyl)isoxazole-3-carboxamide], in that order: less than 25% and greater than 10 µM.
Regarding `C[C@H](c1ccc(C(F)(F)F)cc1C(F)(F)F)n1cc(NC(=O)c2cc(-c3cccnc3)on2)cn1` [Compound 36, (R)-N-(1-(1-(2,4-bis(trifluoromethyl)phenyl)ethyl)-1H-pyrazol-4-yl)-5-(pyridin-3-yl)isoxazole-3-carboxamide], under setting [1], the inhibition at 1 µM was less than 25%. Besides, under setting [2], the IC50 was greater than 10 µM.
For `O=C(Nc1cn(Cc2ccc(C(F)(F)F)cc2C(F)(F)F)cn1)c1cc(-c2ccco2)on1` [Compound 17, N-(1-(2,4-bis(trifluoromethyl)benzyl)-1H-imidazol-4-yl)-5-(furan-2-yl)isoxazole-3-carboxamide], in that order: less than 25% and greater than 10 µM.
In the case of `C[C@H](c1ccc(C(F)(F)F)cc1C(F)(F)F)n1cc(NC(=O)c2cc(-c3ncccc3Cl)on2)cn1` [Compound 34, (R)-N-(1-(1-(2,4-bis(trifluoromethyl)phenyl)ethyl)-1H-pyrazol-4-yl)-5-(3-chloropyridin-2-yl)isoxazole-3-carboxamide], the inhibition at 1 µM under setting [1] is less than 25%. Further, under setting [2], the IC50 is greater than 10 µM.
For `C[C@H](c1ccc(C(F)(F)F)cc1C(F)(F)F)n1cc(NC(=O)c2nnc(-c3ccco3)s2)cn1` [Compound 160, (R)—N-(1-(1-(2,4-bis(trifluoromethyl)phenyl)ethyl)-1H-pyrazol-4-yl)-5-(furan-2-yl)-1,3,4-thiadiazole-2-carboxamide], in that order: less than 25% and greater than 10 µM.
Taken in the same sequence, the figures for `C[C@H](c1ccc(C(F)(F)F)cc1C(F)(F)F)n1cc(NC(=O)c2ccccn2)cn1` [Compound 140, (R)—N-(1-(1-(2,4-bis(trifluoromethyl)phenyl)ethyl)-1H-pyrazol-4-yl)picolinamide] were less than 25% and greater than 10 µM.
In the case of `CC(=O)c1cc(C(=O)Nc2cnn(Cc3ccc(C(F)(F)F)cc3C(F)(F)F)c2)no1` [Compound 3, 5-acetyl-N-(1-(2,4-bis(trifluoromethyl)benzyl)-1H-pyrazol-4-yl)isoxazole-3-carboxamide], the inhibition at 1 µM under setting [1] is less than 25%. Also, the half-maximal inhibitory concentration (IC50) under setting [2] is greater than 10 µM.
As for `O=C(Nc1cnn(Cc2ccc(C(F)(F)F)cc2C(F)(F)F)c1)c1cc(-c2ccc(F)cc2F)on1` [Compound 16, N-(1-(2,4-bis(trifluoromethyl)benzyl)-1H-pyrazol-4-yl)-5-(2,4-difluorophenyl)isoxazole-3-carboxamide], the inhibition at 1 µM under setting [1] is less than 25%. Further, under setting [2], the IC50 was greater than 10 µM.
Taken in the same sequence, the figures for `C[C@@H](c1ccc(C(F)(F)F)cc1C(F)(F)F)n1cc(NC(=O)c2nnc(-c3ccccn3)o2)cn1` [Compound 134] were less than 25% and greater than 10 µM.
In the case of `C[C@@H](c1ccc(C(F)(F)F)cc1C(F)(F)F)n1cc(NC(=O)c2cn(-c3ccccn3)nn2)cn1` [Compound 122, (S)—N-(1-(1-(2,4-bis(trifluoromethyl)phenyl)ethyl)-1H-pyrazol-4-yl)-1-(pyridin-2-yl)-1H-1,2,3-triazole-4-carboxamide], where the note is “Homo sapiens, U2OS, 8 h, read-out: Inh. ATF6-Luc @ 1 μM [%], 1 μM test compound, 8 hr”, the inhibition at 1 µM is less than 25%. For the setting “Homo sapiens, U2OS, read-out: IC50 ATF6-Luc reporter [μM], dose-response 30 μM to 1 nM”, the IC50 is greater than 10 µM.
For the compound `Cc1nn(-c2ccc(C(F)(F)F)cc2C(F)(F)F)cc1NC(=O)/C=C/c1ccco1` [Compound 87, (E)—N-(1-(2,4-bis(trifluoromethyl)phenyl)-3-methyl-1H-pyrazol-4-yl)-3-(furan-2-yl)acrylamide], under setting [1], the inhibition at 1 µM was less than 25%. Besides, under setting [2], the IC50 was greater than 10 µM.
For `O=C(Nc1cnn([C@H]2CCc3ccccc32)c1)c1cc(-c2ccco2)on1` [Compound 150, (S)—N-(1-(2,3-dihydro-1H-inden-1-yl)-1H-pyrazol-4-yl)-5-(furan-2-yl)isoxazole-3-carboxamide], in that order: less than 25% and greater than 10 µM.
As for `Cc1cccc(-c2cc(C(=O)Nc3cnn([C@@H](C)c4ccc(C(F)(F)F)cc4C(F)(F)F)c3)no2)n1` [Compound 117, (S)—N-(1-(1-(2,4-bis(trifluoromethyl)phenyl)ethyl)-1H-pyrazol-4-yl)-5-(6-methylpyridin-2-yl)isoxazole-3-carboxamide], the inhibition at 1 µM under setting [1] was less than 25%. Further, the IC50 under setting [2] was greater than 10 µM.
On to Ceapin-A4 [reference compound], for which the “Inh. ATF6-Luc @ 1 μM [%]” value (1 μM test compound, 8 hr) is on record as “+ (+ refers to <25% inhibition at 1 μM)”. Moreover, under “dose-response 30 μM to 1 nM, read-out: IC50 ATF6-Luc reporter”, the IC50 is greater than 10 µM.
With `Cc1nn(Cc2ccc(C(F)(F)F)cc2C(F)(F)F)cc1NC(=O)/C=C/c1ccco1` [Compound 96, (E)—N-(1-(2,4-bis(trifluoromethyl)benzyl)-3-methyl-1H-pyrazol-4-yl)-3-(furan-2-yl)acrylamide], the inhibition at 1 µM under setting [1] is less than 25%. Besides, under setting [2], the IC50 was greater than 10 µM.
As for `O=C(Nc1cnn(Cc2ccc(C(F)(F)F)cc2C(F)(F)F)c1)c1nc(-c2cccc(F)c2)no1` [Compound 4, N-(1-(2,4-bis(trifluoromethyl)benzyl)-1H-pyrazol-4-yl)-3-(3-fluorophenyl)-1,2,4-oxadiazole-5-carboxamide formate], the IC50 under setting [2] is greater than 10 µM. Also, the inhibition at 1 µM under setting [3] is less than 25%.
With `O=C(Nc1cnn(Cc2ccc(C(F)(F)F)cc2C(F)(F)F)c1)c1cnc(Nc2ccccn2)s1` [Compound 130, N-(1-(2,4-bis(trifluoromethyl)benzyl)-1H-pyrazol-4-yl)-2-(pyridin-2-ylamino)thiazole-5-carboxamide], the inhibition at 1 µM under setting [1] was less than 25%. In addition, the half-maximal inhibitory concentration (IC50) under setting [2] was greater than 10 µM.
For `CC(c1ccc(C(F)(F)F)cc1C(F)(F)F)n1cc(NC(=O)c2cc(-c3ccccn3)nn2C)cn1` (stereo not drawn) [Compound 112, N-(1-(1-(2,4-bis(trifluoromethyl)phenyl)ethyl)-1H-pyrazol-4-yl)-1-methyl-3-(pyridin-2-yl)-1H-pyrazole-5-carboxamide], in that order: 25 to 50% and greater than 10 µM.
Turning to `N#Cc1ccc(Cn2cc(NC(=O)c3cc(-c4ccco4)on3)cn2)cc1C(F)(F)F` [Compound 26, N-(1-(4-cyano-3-(trifluoromethyl)benzyl)-1H-pyrazol-4-yl)-5-(furan-2-yl)isoxazole-3-carboxamide], under setting [1], the inhibition at 1 µM was less than 25%. The IC50 under setting [2] was greater than 10 µM.
Taken in the same sequence, the figures for `C[C@@H](c1ccc(F)cc1C(F)(F)F)n1cc(NC(=O)c2cc(-c3ccccn3)on2)cn1` [Compound 111, (S)—N-(1-(1-(4-fluoro-2-(trifluoromethyl)phenyl)ethyl)-1H-pyrazol-4-yl)-5-(pyridin-2-yl)isoxazole-3-carboxamide] were less than 25% and greater than 10 µM.
`O=C(/C=C/c1ccco1)Nc1cnn(Cc2ccc(C(F)(F)F)cc2C(F)(F)F)c1` [Compound 84, (E)—N-(1-(2,4-bis(trifluoromethyl)benzyl)-1H-pyrazol-4-yl)-3-(furan-2-yl)acrylamide]: the IC50 under setting [2] is greater than 10 µM. Besides, under setting [3], the inhibition at 1 µM is less than 25%.
